For the test, the target named is T1, SMO (Mus musculus, UniProt P56726).
T1 construct: endogenous in cells; host or cells: C3H10T1/2 (ATCC #CCL-226)
The experiment in a line: Smoothened (SMO)/Sonic Hedgehog (SHh) Transient Transcriptional Activation Assay (Gli-luciferase reporter in C3H10T1/2 cells). In kind it is cell-based, murine. As to conditions: SHh 250 ng/ml, 20 hrs. The procedure:
As noted above, the compounds of the invention are useful as inhibitors of SMO. Methods for determining the in vitro activity of these compounds are described below: Smoothened (SMO)/Sonic Hedgehog (SHh) Transient Transcriptional Activation Assay
On Day 1,2×10^6 C3H10T1/2 cells (ATCC #CCL-226) were split and seeded in 12 mls of growth medium Basal Medium Eagle (BME, Invitrogen #21010-046) supplemented with 2 mM L-glutamine (Invitrogen #25030-081), 0.1 units/ml penicillin and 0.1 ug/ml streptomycin (Invitrogen #15140-122), and 10% Fetal Bovine Serum (FBS, Invitrogen #16140-071) in a T-75 flask (Costar #3376). They were allowed to attach for 4 hours at 37° C., 5% CO2. The cells were then transfected using Fugene 6 (Roch #11 814 443 001) in the following reaction: 48 ul Fugene 6 and 745 ul Opti-MEM (Invitrogen #31985-070) were mixed and allowed to sit at room temperature for 5 minutes. 8 ug of pGL4.14/mGli(CS) DNA (10× murine Gli response elements and minimal CS promoter) and 0.5 ug of pEGFP DNA (Clontech) were added, gently mixed and incubated at room temperature for 20 minutes. This entire transfection mix was then added to the T-75 flask containing the cells. The cells were incubated at 37 °C, 5% C02 for 18-24 hrs.
On Day 2, the transfected cells were trypsinized and seeded into white 96 well plates (Costar #3917) in 100ul/well of growth medium at a concentration of 20,000 cells/well. The cells were allowed to recover for 4 hrs before adding serum starvation medium Dulbecco's Modified Eagle Medium (DMEM, Invitrogen #21063-029) supplemented with 2 mM L-glutamine, 0.1 units/ml penicillin and 0.1 ug/ml streptomycin, and 0.5% Calf Serum (CS, Invitrogen #26170-043). The growth media was aspirated off, and the cells were rinsed with 100 ul of starvation media. 95 ul of starvation media was then added to each well. The cells were incubated for 20 hrs at 37 °C, 5% C02.
On Day 3, cells were dosed with test compounds at a final concentration ranging from 2 uM to 2 nM. Immediately after dosing cells with compounds, recombinant human sonic hedgehog (SHh, R&D Systems #1845-SH) was add to a final concentration of 250 ng/ml. A 25 ug vial of SHh was reconstituted with 250 ul PBS/0.1% BSA to give a 100 ng/ul working stock. This working stock was then diluted 1:20 in starvation media. The transfected cells were incubated with compounds and SHh for 20 hrs at 37 °C, 5% C02.
Luciferase assays were conducted on Day 4 using Dual-Glo Luciferase assay system (Promega #E2940) according to Promega's protocol. Briefly, Dual-Glo luciferase reagent was made up and 100 uls were added to each well of the 96 well plate containing media. Plates were shaken at room temperature for 10 minutes, and then read on TopCount (Perkin-Elmer). The luminescence was recorded.

Where [1] appears, read: C3H 10T1/2, 2 μM test compound, read-out: SMO CELL % INHIBITION @ 2 μM.
The mark [2] stands for this setting: C3H 10T1/2, 2 uM test compound, read-out: SMO % inhibition at 2 uM.

Where a name gives a salt, the structure may show the parent alone. Read-outs that look alike come from different tables or passages of the source.

T1 sequence (P56726 33-793): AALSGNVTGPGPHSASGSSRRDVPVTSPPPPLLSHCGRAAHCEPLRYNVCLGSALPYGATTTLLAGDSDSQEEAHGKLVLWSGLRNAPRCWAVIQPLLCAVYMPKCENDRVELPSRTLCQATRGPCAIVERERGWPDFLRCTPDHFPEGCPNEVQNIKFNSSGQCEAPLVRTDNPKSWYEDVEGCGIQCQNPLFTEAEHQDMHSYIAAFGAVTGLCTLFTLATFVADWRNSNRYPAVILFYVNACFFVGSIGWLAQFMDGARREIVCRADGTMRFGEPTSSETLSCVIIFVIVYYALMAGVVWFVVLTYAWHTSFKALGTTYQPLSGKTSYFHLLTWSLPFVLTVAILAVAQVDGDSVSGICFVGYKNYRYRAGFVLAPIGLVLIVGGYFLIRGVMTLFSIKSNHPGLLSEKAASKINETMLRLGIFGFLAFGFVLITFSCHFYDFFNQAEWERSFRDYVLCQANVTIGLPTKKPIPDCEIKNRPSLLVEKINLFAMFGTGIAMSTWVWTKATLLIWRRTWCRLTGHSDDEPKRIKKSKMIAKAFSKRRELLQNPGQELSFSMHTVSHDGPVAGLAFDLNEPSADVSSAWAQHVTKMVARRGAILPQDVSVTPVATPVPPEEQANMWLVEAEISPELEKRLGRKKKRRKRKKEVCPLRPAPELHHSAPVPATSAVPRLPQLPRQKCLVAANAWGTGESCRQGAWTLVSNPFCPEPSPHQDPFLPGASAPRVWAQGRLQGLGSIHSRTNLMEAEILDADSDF

On to `COc1cc(OC)cc(C(=O)NC2CCCC(c3nc4ccc(F)cc4[nH]3)C2)c1` (stereo not drawn) [Example 70, N-[3-(6-fluoro-1H-benzimidazol-2-yl)cyclohexyl]-3,5-dimethoxybenz-amide], for which, under setting [1], the inhibition at 2 µM came to 83%. The same measure, in the same setting: the figure for `O=C(N[C@@H]1CCC[C@H](c2nc3ccccc3[nH]2)C1)c1c[nH]c2ccccc12` [Example 205, N-[(1R,3S)-3-(1H-benzimidazol-2-yl)cyclohexyl]-1H-indole-3-carboxamide triflouroacetate] is 54%; for `C[S+]([O-])c1ccc(C(=O)NC2CCCC(c3nc4ccccc4[nH]3)C2)cc1` (stereo not drawn) [Example 126, N-[3-(1H-benzimidazol-2-yl)cyclophexyl]-4-(methylsulfinyl) benzamide triflouroacetate] it is 83%; for `O=C(Cc1ccc(Cl)s1)NC1CCCC(c2nc3ccccc3[nH]2)C1` (stereo not drawn) [Example 131, N-[3-(1H-benzimidazol-2-yl)cyclohexyl]-2-(5-chloro-2-thienyl)acetamide triflouroacetate] it is 101%. On the same count and under the same terms, the figure for `COc1cc(C(=O)N[C@@H]2CCC[C@H](c3nc4ccccc4[nH]3)C2)ccn1` [Example 165, N-[(1R,3S)-3-(1H-benzimidazol-2-yl)cyclohexyl]-2-methoxyisonico-tinamide HCl] is 63%; for `O=C(N[C@@H]1CCC[C@H](c2nc3ccccc3[nH]2)C1)c1ccc2c(n1)OCCO2` [Example 242, N-((1R,3S)-3-(1H-benzo[d]imidaz-ol-2-yl)cyclohexyl)-2,3-dihydro-[1,4]dioxino[2,3-b]pyridine-6-carboxamide] it is 86%.

Regarding `O=C(N[C@@H]1CCCC(c2nc3ccccc3[nH]2)C1)c1ccc2c(c1)OC(F)(F)O2` (stereo partly drawn) [Example 251, N-((1R,3S)-3-(1H-benzo[d]imidaz-ol-2-yl)cyclohexyl)-2,2-difluorobenzo[d] [1,3]dioxole-5-carboxamide], under setting [1], the inhibition at 2 µM worked out at 102%. The same measure, in the same setting: the figure for `COc1cc(OC)cc(C(=O)NC2CCCC(c3nc4ccc(OC)cc4[nH]3)C2)c1` (stereo not drawn) [Example 69, 3,5-dimethoxy-N-[3-(6-methoxy-1H-benzimidazol-2-yl)cyclohexyl] benzamide] is 105%. Take `O=C(CCCC(=O)NC1CCCC(c2nc3ccccc3[nH]2)C1)Nc1ccccc1` (stereo not drawn) [Example 129, N-[3-(1H-benzimidazol-2-yl)cyclohexyl]-N′-phenylpentane diamide triflouroacetate]: the inhibition at 2 µM under setting [1] worked out at 95%. Same read-out and setting: for `Cc1ccn2cc(CCC(=O)NC3CCCC(c4nc5ccccc5[nH]4)C3)nc2c1` (stereo not drawn) [Example 156, N-[3-(1H-benzimidazol-2-yl)cyclohexyl]-3-(7-methylimidazo [1,2-a]pyridin-2-yl)propanamide triflouroacetate] the value was 53%; for `O=C(COCc1ccccc1)NC1CCCC(c2nc3ccccc3[nH]2)C1` (stereo not drawn) [Example 104, N-[3-(1H-benzimidazol-2-yl)cyclohexyl]-2-(benzyloxy)-acetamide triflouroacetate], 73%; for `O=C(N[C@@H]1CCC[C@H](c2nc3ccccc3[nH]2)C1)c1ccc2c(c1)CCNC2` [Example 309, N-[(1R,3S)-3-(1H-benzimidazol-2-yl)cyclohexyl]-1,2,3,4-tetrahydroiso-quinoline-6-carboxamide HCl], 102%. Regarding `CNC(=O)c1ccc2nc([C@H]3CCC[C@@H](NC(=O)c4cc(OC)cc(OC)c4)C3)[nH]c2c1` [Example 7, 2-(3-[3,5-dimethoxybenzamido)cyclohexyl)-N-methyl-1H-benzo[d]imidazole-5-carboxamide], under setting [2], the inhibition at 2 µM stood at 70%. In the case of `COc1cc(OC)cc(C(=O)NC2CCCC(c3nc4ccc(NS(=O)(=O)C(C)C)cc4[nH]3)C2)c1` (stereo not drawn) [Example 12, 3,5-Dimethoxy-N-(3-(5-(propan-2-ylsulfonamido)-1H-benzo[d]imidazol-2-yl)cyclohexyl)], the inhibition at 2 µM under setting [2] was found to be 62%. Consider “N-(3-(6-(Methoxymethyl)-1-methyl-1H-benzo[d]imidazol-2-yl]cyclohexyl)-2,3-dihydrobenzo[b][1,4]dioxine-6-carboxamide and N-(3-(6-(Methoxymethyl)-1-methyl-1H-benzo[d]imidazol-2-yl]cyclohexyl)-2,3-dihydrobenzo[b][1,4]dioxine-6-carboxamide [Example 33]”, for which the “SMO % inhibition at 2 uM” value (2 uM test compound) came to 102%.

Consider `COc1cc(OC)cc(C(=O)NC2CCCC(c3nc4ccccc4n3CCO)C2)c1` (racemic) [Example 13, N-(3-(1-(2-Hydroxyethyl)-1H-benzo[d]imidazol-2-yl)cyclohexyl)-3,5-dimethoxybenzamide (cis-isomer)], for which the inhibition at 2 µM under setting [2] came out at 98%. Regarding `COc1cccc2c1OCC(C(=O)NC1CCCC(c3nc4ccccc4[nH]3)C1)C2` (stereo not drawn) [Example 133, N-[3-(1H-benzimidazol-2-yl)cyclohexyl]-8-methoxychrom-ane-3-carboxamide triflouroacetate], the inhibition at 2 µM under setting [1] amounted to 85%.

Turning to `CN1CCCc2cc(C(=O)N[C@@H]3CCC[C@H](c4nc5ccccc5[nH]4)C3)ccc21` [Example 200, N-[(1R,3S)-3-(1H-benzimidazol-2-yl)cyclohexyl]-1-methyl-1,2,3,4-tetrahydroquino-line-6-carboxamide HCl], the inhibition at 2 µM under setting [1] was found to be 110%. On the same count and under the same terms, for `O=C(NC1CCCC(c2nc3ccccc3[nH]2)C1)c1cnn(Cc2ccccc2)c1` (stereo not drawn) [Example 91, N-[3-(1H-benzimidazol-2-yl)cyclohexyl]-1-benzyl-1H-pyrazole-4-carboxamide triflouroacetate] the value was 99%; for `O=C(N[C@@H]1CCC[C@H](c2nc3ccccc3[nH]2)C1)C1=Cc2ccccc2OC1` [Example 193, N-[(1R,3S)-3-(1H-benzimidazol-2-yl)cyclohexyl]-2H-chromene-3-carboxamide triflouroacetate], 53%; for `Cn1ccnc1C(=O)NC1CCCC(c2nc3ccccc3[nH]2)C1` (stereo not drawn) [Example 164, N-[3-(1H-benzimidazol-2-yl)cyclohexyl]-1-methyl-1H-imidazole-2-carboxamide triflouroacetate], 106%. As for `COc1cc(C(=O)N[C@@H]2CCC[C@H](c3nc4ccccc4[nH]3)C2)cc2c1OCO2` [Example 222, N-[(1R,3S)-3-(1H-benzimidazol-2-yl)cyclohexyl]-7-methoxy-1,3-benzodioxole-5-carboxamide triflouroacetate], under setting [1], the inhibition at 2 µM was determined as 52%. On the same count and under the same terms, for `COC(=O)CCCC(=O)NC1CCCC(c2nc3ccccc3[nH]2)C1` (stereo not drawn) [Example 103, methyl 5-{[3-(1H-benzimidazol-2-yl)cyclohexyl]-amino}-5-oxopentanoate triflouroacetate] the value was 94%; for `O=C(NC12CCCC(c3nc4ccccc4[nH]3)(C1)C2)c1ccc2c(c1)CCCO2` [Example 279, N-[5-(1H-benzimidazol-2-yl)bicyclo[3.1.1]hept-1-yl]chromane-6-carboxamide], 92.6%; for `O=C(N[C@@H]1CCC[C@H](c2nc3cc(C(F)(F)F)ccc3[nH]2)C1)c1ccc2c(c1)OCCO2` [Example 151, N-{(1R,3S)-3-[5-(trifluoromethyl)-1H-benzimidazol-2-yl]cyclohexyl}-2,3-dihydro-1,4-benzodioxine-6-carboxamide HCl], 106%.

`COc1cc(OC)cc(C(=O)NC2CCCC(c3nc4cc(NC(=O)C(C)C)ccc4[nH]3)C2)c1` (stereo not drawn) [Example 10, N-(3-(5-Isobutyramido-1H-benzo[d]imidazol-2-yl)cyclohexyl)-3,5-dimethoxybenzamide]: under setting [2], the inhibition at 2 µM turned out to be 96%. In the case of `O=C(N[C@@H]1CCC[C@H](c2nc3ccccc3[nH]2)C1)c1cc2cc(Cl)ccc2o1` [Example 181, N-[(1R,3S)-3-(1H-benzimidazol-2-yl)cyclohexyl]-5-chloro-1-benzofuran-2-carboxamide triflouroacetate], the inhibition at 2 µM under setting [1] came to 104%.

These data come from patent US20100029615A1, “BENZIMIDAZOLE DERIVATIVES” (priority 2006, published 2010).
